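A five-concentration, 48-hour dose response in 96-well plates underlies each endpoint, interpolated linearly between surrounding concentrations. At the GI50, growth is halved.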 Active and inactive are the calls of the source. No stated cut-off is given here; in the data, active = GI50 up to about 1.1 µM and inactive = higher.
Key:
Assay in all cases: growth of human tumour cells (NCI), 48 h
HT-29 = system: HT-29
HOP-18 = system: HOP-18
A498 = system: A498
CCRF-CEM = system: CCRF-CEM
SF-295 = system: SF-295
SF-268 = system: SF-268
M14 = system: M14
SNB-19 = system: SNB-19
HOP-92 = system: HOP-92
SNB-78 = system: SNB-78
SK-OV-3 = system: SK-OV-3
SK-MEL-2 = system: SK-MEL-2
SK-MEL-28 = system: SK-MEL-28
EKVX = system: EKVX
ACHN = system: ACHN
M19-MEL = system: M19-MEL
HL-60 = system: HL-60
SNB-75 = system: SNB-75
HCT-15 = system: HCT-15
IGROV-1 = system: IGROV-1
U-251 = system: U-251
KM-20L2 = system: KM-20L2
UACC-62 = system: UACC-62
RPMI-8226 = system: RPMI-8226
UO-31 = system: UO-31
OVCAR-8 = system: OVCAR-8
SF-539 = system: SF-539
TK-10 = system: TK-10
LOX IMVI = system: LOX IMVI
MOLT-4 = system: MOLT-4
OVCAR-3 = system: OVCAR-3
K562 = system: K562
NCI-H226 = system: NCI-H226
LXFL 529 = system: LXFL 529
SN12C = system: SN12C
NCI-H23 = system: NCI-H23
Malme-3M = system: Malme-3M
COLO 205 = system: COLO 205
NCI-H460 = system: NCI-H460
NCI-H522 = system: NCI-H522
DLD-1 = system: DLD-1
CAKI-1 = system: CAKI-1
SK-MEL-5 = system: SK-MEL-5
SW-620 = system: SW-620
KM12 = system: KM12
OVCAR-5 = system: OVCAR-5
DMS-273 = system: DMS-273
HCT-116 = system: HCT-116
RXF 393 = system: RXF 393
HCC 2998 = system: HCC 2998
786-0 = system: 786-0
UACC-257 = system: UACC-257
HOP-62 = system: HOP-62
OVCAR-4 = system: OVCAR-4
DMS-114 = system: DMS-114
A549 = system: A549
SR = system: SR

Cc1cc(=O)oc2c1cc1ccc3cccc4ccc2c1c34
GI50 (HT-29): > 100 µM (inactive)
GI50 (HOP-18): > 100 µM (inactive)
GI50 (A498): > 100 µM (inactive)
GI50 (CCRF-CEM): > 100 µM (inactive)
GI50 (SF-295): 40.4 µM (inactive)
GI50 (SF-268): > 100 µM (inactive)
GI50 (M14): > 100 µM (inactive)
GI50 (SNB-19): 64.7 µM (inactive)
GI50 (HOP-92): 31.5 µM (inactive)
GI50 (SNB-78): 83 µM (inactive)
GI50 (SK-OV-3): > 100 µM (inactive)
GI50 (SK-MEL-2): > 100 µM (inactive)
GI50 (SK-MEL-28): > 100 µM (inactive)
GI50 (EKVX): > 100 µM (inactive)
GI50 (ACHN): 46.7 µM (inactive)
GI50 (M19-MEL): > 100 µM (inactive)
GI50 (HL-60): > 100 µM (inactive)
GI50 (SNB-75): 41 µM (inactive)
GI50 (HCT-15): > 100 µM
GI50 (IGROV-1): > 100 µM (inactive)
GI50 (U-251): 41.2 µM (inactive)
GI50 (KM-20L2): > 100 µM (inactive)
GI50 (UACC-62): > 100 µM (inactive)
GI50 (RPMI-8226): > 100 µM (inactive)
GI50 (UO-31): > 100 µM (inactive)
GI50 (OVCAR-8): > 100 µM (inactive)
GI50 (SF-539): 58.6 µM (inactive)
GI50 (TK-10): > 100 µM (inactive)
GI50 (LOX IMVI): > 100 µM (inactive)
GI50 (MOLT-4): > 100 µM (inactive)
GI50 (OVCAR-3): > 100 µM (inactive)
GI50 (K562): > 100 µM (inactive)
GI50 (NCI-H226): > 100 µM (inactive)
GI50 (LXFL 529): > 100 µM (inactive)
GI50 (SN12C): > 100 µM (inactive)
GI50 (NCI-H23): > 100 µM (inactive)
GI50 (Malme-3M): > 100 µM (inactive)
GI50 (COLO 205): > 100 µM (inactive)
GI50 (NCI-H460): 89.3 µM (inactive)
GI50 (NCI-H522): 64.7 µM (inactive)
GI50 (DLD-1): > 100 µM (inactive)
GI50 (CAKI-1): > 100 µM (inactive)
GI50 (SK-MEL-5): > 100 µM (inactive)
GI50 (SW-620): > 100 µM (inactive)

CCNc1c(C(=O)N(CC)CC)c(=O)[nH]c2ncccc12
GI50 (HT-29): > 100 µM (inactive)
GI50 (KM12): > 100 µM (inactive)
GI50 (OVCAR-5): > 100 µM (inactive)
GI50 (DMS-273): > 100 µM (inactive)
GI50 (A498): > 100 µM (inactive)
GI50 (CCRF-CEM): > 100 µM (inactive)
GI50 (SF-295): > 100 µM (inactive)
GI50 (SF-268): > 100 µM (inactive)
GI50 (M14): > 100 µM (inactive)
GI50 (SNB-19): > 100 µM (inactive)
GI50 (HOP-92): > 100 µM (inactive)
GI50 (SNB-78): > 100 µM (inactive)
GI50 (SK-OV-3): > 100 µM (inactive)
GI50 (SK-MEL-2): > 100 µM (inactive)
GI50 (HCT-116): > 100 µM (inactive)
GI50 (SK-MEL-28): > 100 µM (inactive)
GI50 (EKVX): > 100 µM (inactive)
GI50 (ACHN): > 100 µM (inactive)
GI50 (M19-MEL): > 100 µM (inactive)
GI50 (HL-60): > 100 µM (inactive)
GI50 (RXF 393): > 100 µM (inactive)
GI50 (SNB-75): > 100 µM (inactive)
GI50 (HCT-15): > 100 µM
GI50 (HCC 2998): > 100 µM (inactive)
GI50 (IGROV-1): > 100 µM (inactive)
GI50 (786-0): > 100 µM (inactive)
GI50 (U-251): > 100 µM (inactive)
GI50 (UACC-257): > 100 µM (inactive)
GI50 (HOP-62): > 100 µM (inactive)
GI50 (KM-20L2): > 100 µM (inactive)
GI50 (OVCAR-4): > 100 µM (inactive)
GI50 (UACC-62): > 100 µM (inactive)
GI50 (RPMI-8226): > 100 µM (inactive)
GI50 (UO-31): > 100 µM (inactive)
GI50 (OVCAR-8): > 100 µM (inactive)
GI50 (DMS-114): > 100 µM (inactive)
GI50 (SF-539): > 100 µM (inactive)
GI50 (TK-10): > 100 µM (inactive)
GI50 (LOX IMVI): > 100 µM (inactive)
GI50 (MOLT-4): > 100 µM (inactive)
GI50 (A549): > 100 µM (inactive)
GI50 (OVCAR-3): > 100 µM (inactive)
GI50 (K562): > 100 µM (inactive)
GI50 (NCI-H226): > 100 µM (inactive)
GI50 (LXFL 529): > 100 µM (inactive)
GI50 (SN12C): > 100 µM (inactive)
GI50 (NCI-H23): > 100 µM (inactive)
GI50 (Malme-3M): > 100 µM (inactive)
GI50 (COLO 205): > 100 µM (inactive)
GI50 (NCI-H460): > 100 µM (inactive)
GI50 (NCI-H522): > 100 µM (inactive)
GI50 (DLD-1): > 100 µM (inactive)
GI50 (CAKI-1): > 100 µM (inactive)
GI50 (SK-MEL-5): > 100 µM (inactive)
GI50 (SW-620): > 100 µM (inactive)

Cc1c2cc[n+](C)cc2c(C)c2c1[nH]c1ccc(OCC(F)(F)F)cc12
GI50 (HT-29): 4.11 µM (inactive)
GI50 (HOP-18): 3.72 µM (inactive)
GI50 (KM12): 3.41 µM (inactive)
GI50 (DMS-273): 1.49 µM (inactive)
GI50 (CCRF-CEM): 7.31 µM (inactive)
GI50 (SF-295): 0.275 µM (active)
GI50 (SF-268): 0.286 µM (active)
GI50 (SNB-19): 0.718 µM (active)
GI50 (HOP-92): 2.08 µM (inactive)
GI50 (SK-OV-3): 3.08 µM (inactive)
GI50 (SK-MEL-2): 4.62 µM (inactive)
GI50 (HCT-116): 3.37 µM (inactive)
GI50 (M19-MEL): 2.09 µM (inactive)
GI50 (HCC 2998): 7.14 µM (inactive)
GI50 (IGROV-1): 2.77 µM (inactive)
GI50 (786-0): 0.38 µM (active)
GI50 (U-251): 0.275 µM (active)
GI50 (HOP-62): 0.771 µM (active)
GI50 (KM-20L2): 3.98 µM (inactive)
GI50 (OVCAR-4): 4.61 µM (inactive)
GI50 (UACC-62): 12.2 µM (inactive)
GI50 (OVCAR-8): 0.467 µM (active)
GI50 (DMS-114): 1.47 µM (inactive)
GI50 (SF-539): 1.07 µM (active)
GI50 (SR): 3.37 µM (inactive)
GI50 (MOLT-4): 5.12 µM (inactive)
GI50 (A549): 2.12 µM (inactive)
GI50 (OVCAR-3): 4.72 µM (inactive)
GI50 (K562): 3.83 µM (inactive)
GI50 (NCI-H226): 0.375 µM (active)
GI50 (LXFL 529): 0.447 µM (active)
GI50 (SN12C): 0.164 µM (active)
GI50 (NCI-H23): 1.49 µM (inactive)
GI50 (Malme-3M): 1.77 µM (inactive)
GI50 (COLO 205): 0.94 µM (active)
GI50 (NCI-H460): 2.25 µM (inactive)
GI50 (NCI-H522): 1.57 µM (inactive)
GI50 (DLD-1): 1.36 µM (inactive)
GI50 (SK-MEL-5): 1.73 µM (inactive)
GI50 (SW-620): 3.01 µM (inactive)
